Results published in publication PMC9081825 (2022).

Key:
Assay in all cases: QD fluorescence recovery on release from amSWCNT
[1] = tested on: A08min-QDs (multi-QD mixture, nanocomplex 1) (DNA, aptamer) GGCAGTGTGGGCGAATCTATGCGTACCGTTCGATATCGTG; conditions: 137 mM NaCl, 2.7 mM KCl; phosphate buffer pH 7.4; tested at 1.5 μM; 530 nm
[2] = tested on: A08min-RQD (nanocomplex 4) (DNA, aptamer) GGCAGTGTGGGCGAATCTATGCGTACCGTTCGATATCGTG; conditions: 137 mM NaCl, 2.7 mM KCl; phosphate buffer pH 7.4; OTA 0-1.2 μM; 650 nm; 0.12 mg/mL amSWCNT
[3] = tested on: 1.12.2-RQD (nanocomplexes 4 and 5) (DNA, aptamer) GATCGGGTGTGGGTGGCGTAAAGGGAGCATCGGACA; conditions: 120 mM NaCl, 5 mM KCl, 10 mM CaCl2, 10 mM HEPES pH 7.0 (buffer listed for 1.12.2 in supplement)
[4] = tested on: 1.12.2-GQD (nanocomplex 3) (DNA, aptamer) GATCGGGTGTGGGTGGCGTAAAGGGAGCATCGGACA; conditions: 120 mM NaCl, 5 mM KCl, 10 mM CaCl2, 10 mM HEPES pH 7.0 (buffer listed for 1.12.2 in supplement)
[5] = tested on: A08min-GQD (nanocomplex 3) (DNA, aptamer) GGCAGTGTGGGCGAATCTATGCGTACCGTTCGATATCGTG; conditions: 137 mM NaCl, 2.7 mM KCl; phosphate buffer pH 7.4; OTA 0-1.2 μM; 525 nm; 0.12 mg/mL amSWCNT

Row | Structure (SMILES) | binding [1] | other results
1 | CC(=O)CC(c1ccccc1)c1c(O)c2ccccc2oc1=O (centres unmarked) | no | –
2 | CCCC[C@@H](C)[C@@H](OC(=O)C[C@@H](CC(=O)O)C(=O)O)[C@H](C[C@@H](C)C[C@H](O)CCCC[C@@H](O)C[C@H](O)[C@H](C)N)OC(=O)C[C@@H](CC(=O)O)C(=O)O | no | –
3 | C[C@@H]1Cc2c(Cl)cc(C(=O)N[C@@H](Cc3ccccc3)C(=O)O)c(O)c2C(=O)O1 | – | binding [2]: yes; binding [3]: yes; binding [4]: yes; binding [5]: yes
4 | C[C@@H]1Cc2ccc(C(=O)N[C@@H](Cc3ccccc3)C(=O)O)c(O)c2C(=O)O1 | no | –
5 | O=C1C=C2C(=CCOC2O)O1 (centres unmarked) | no | –
